From US4314061A, “Certain 3,6-bis-(heteroaminoalkoxy) acridines” (priority 1980, dated 1982)
Structures can show the parent of a compound that is named as a salt.

Key:
[1] = test system: Rauscher Virus-Induced Leukemia; test: Inhibition of splenomegaly in mice with Rauscher virus-induced leukemia; type: in vivo, Balb/c mice; settings: for reduction in splenomegaly: general statement, no dose, relative to placebo treated RLV-infected mice
[2] = test system: Rauscher Virus-Induced Leukemia; test: Restoration of antibody formation in mice with Rauscher virus-induced leukemia; type: in vivo, Balb/c mice
Columbia SK virus [3] = test: Antiviral effects against an interferon-sensitive virus, Columbia SK; type: in vivo, Taconic Farms male, white mice; settings: 400 mg/kg oral, 18 hours before infection; 14 days post injection
Protocol: Taconic Farms male, white mice, weighing 18-24 g were treated by gavage, 18 hours before infection with a test compound suspended or dissolved in 1.0 ml of 0.2% aqueous agar solution. The mice were then infected by subcutaneous injection with one LD95 of Columbia SK virus in 0.2 ml of distilled water. Groups of infected, untreated mice were used as controls to show the lethality of the infection. The test duration was 14 days.

[4] = test system: natural killer lymphocytes (NK cells); test: Stimulation of NK-cell activity in normal mice; settings: 10 mg/kg intraperitoneal
B16 melanoma = test: Distribution of metastatic foci in lungs of mice inoculated subcutaneously with B16 melanoma; type: in vivo, BDF1 mice; settings: for No. of mice with 0 lung foci/mouse / No. of mice with 1-5 lung foci/mouse / No. of mice with 6-10 lung foci/mouse / No. of mice with 11-15 lung foci/mouse / No. of mice with >15 lung foci/mouse: day 25
Protocol: BDF1 male mice inoculated subcutaneously with 0.25 ml of a 10% tumor
homogenate on day 0. Drugs administered intraperitoneally days 1,5,9 and
13; mice sacrificed on day 25, 10 mice per group. Distribution of […]

Columbia SK virus [5] = test: Protection of mice against lethal Columbia SK virus infection by oral pre-treatment; type: in vivo, random-bred Swiss male mice; settings: 200 mg/kg oral
Protocol: At 24, 48, 72 and 96 hours after drug treatment, separate groups of mice were injected SC with an LD95 dose of the interferon sensitive virus, Columbia SK. […] Typically, protection from lethal infection with Columbia SK virus is associated with induction of interferon.

CCN(CC)CCOc1ccc2cc3ccc(OCCN(CC)CC)c(Cl)c3nc2c1Cl [3,6-bis(2-diethylaminoethoxy)-4,5-dichloroacridine]
% Reduction in splenomegaly ([1]; 50 mg/kg): 86% | Serum hemagglutinin titer/saline control titer ([2]; 100 mg/kg oral): 128/16 | Survivors/Total (Columbia SK virus [3]): 7/15

polyinosinic acid:polycytidylic acid [Poly I:C, reference compound]
Serum hemagglutinin titer/saline control titer ([2]; 10 mg/kg IP): 1024/32 | % Cytotoxicity ([4]; Test 1 (CD1 mice), * p <.05): 24.7% | % Cytotoxicity ([4]; Test 2 (BDF1 hybrids)): 36.1%

O=c1[nH]cc(F)c(=O)[nH]1 [5-fluorouracil, reference compound]
% Reduction in splenomegaly ([1]; 50 mg/kg): 115% | reduction in splenomegaly [1]: ≥ 50% | No. of mice with 0 lung foci/mouse (B16 melanoma; 20 mg/kg i.p.): 1 | No. of mice with 1-5 lung foci/mouse (B16 melanoma; 20 mg/kg i.p.): 2 | No. of mice with 6-10 lung foci/mouse (B16 melanoma; 20 mg/kg i.p.): 1 | No. of mice with 11-15 lung foci/mouse (B16 melanoma; 20 mg/kg i.p.): 2 | No. of mice with >15 lung foci/mouse (B16 melanoma; 20 mg/kg i.p.): 1 | No. of mice with 0 lung foci/mouse (B16 melanoma; 25 mg/kg i.p.): 3 | No. of mice with 1-5 lung foci/mouse (B16 melanoma; 25 mg/kg i.p.): 3 | No. of mice with 6-10 lung foci/mouse (B16 melanoma; 25 mg/kg i.p.): 1 | No. of mice with 11-15 lung foci/mouse (B16 melanoma; 25 mg/kg i.p.): 1 | No. of mice with >15 lung foci/mouse (B16 melanoma; 25 mg/kg i.p.): 1 | No. of mice with 0 lung foci/mouse (B16 melanoma; 30 mg/kg i.p.): 3 | No. of mice with 1-5 lung foci/mouse (B16 melanoma; 30 mg/kg i.p.): 3 | No. of mice with 6-10 lung foci/mouse (B16 melanoma; 30 mg/kg i.p.): 3 | No. of mice with 11-15 lung foci/mouse (B16 melanoma; 30 mg/kg i.p.): 0 | No. of mice with >15 lung foci/mouse (B16 melanoma; 30 mg/kg i.p.): 0 | No. of mice with 0 lung foci/mouse (B16 melanoma; 40 mg/kg i.p.): 2 | No. of mice with 1-5 lung foci/mouse (B16 melanoma; 40 mg/kg i.p.): 5 | No. of mice with 6-10 lung foci/mouse (B16 melanoma; 40 mg/kg i.p.): 4 | No. of mice with 11-15 lung foci/mouse (B16 melanoma; 40 mg/kg i.p.): 0 | No. of mice with >15 lung foci/mouse (B16 melanoma; 40 mg/kg i.p.): 0 | No. of mice with 0 lung foci/mouse (B16 melanoma; 50 mg/kg i.p.): 2 | No. of mice with 1-5 lung foci/mouse (B16 melanoma; 50 mg/kg i.p.): 4 | No. of mice with 6-10 lung foci/mouse (B16 melanoma; 50 mg/kg i.p.): 3 | No. of mice with 11-15 lung foci/mouse (B16 melanoma; 50 mg/kg i.p.): 0 | No. of mice with >15 lung foci/mouse (B16 melanoma; 50 mg/kg i.p.): 0

CCN(CC)C(C)COc1ccc2cc3ccc(OCC(C)N(CC)CC)cc3nc2c1.Cl.Cl.Cl (centres unmarked) [3,6-Bis(2-diethylaminopropoxy)acridine . 3HCl]
Survivors/Total (Columbia SK virus [3]): 13/15

CCN(CC)CCOc1ccc2c(c1)C(=O)c1cc(OCCN(CC)CC)ccc1-2 [Tilorone, tilorone hydrochloride, reference compound]
Survivors/Total (14 Days) (Columbia SK virus [5]; -24 hr relative to virus challenge, * p <.01): 18/20 | Survivors/Total (14 Days) (Columbia SK virus [5]; -48 hr relative to virus challenge, * p <.01): 15/20 | Survivors/Total (14 Days) (Columbia SK virus [5]; -72 hr relative to virus challenge, * p <.01): 9/20 | Survivors/Total (14 Days) (Columbia SK virus [5]; -96 hr relative to virus challenge): 8/20

CN(Cc1cnc2nc(N)nc(N)c2n1)c1ccc(C(=O)N[C@@H](CCC(=O)O)C(=O)O)cc1 [Methotrexate, reference compound]
% Reduction in splenomegaly ([1]; 4 mg/kg): 59% | reduction in splenomegaly [1]: ≥ 50%

CCN(CC)CCOc1ccc2cc3ccc(OCCN(CC)CC)c([N+](=O)[O-])c3nc2c1[N+](=O)[O-] [3,6-bis(2-diethylaminoethoxy)-4,5-dinitroacridine]
% Reduction in splenomegaly ([1]; 100 mg/kg): 108%

Cl.Cl.Cl.c1cc2cc3ccc(OCCN4CCCCC4)cc3nc2cc1OCCN1CCCCC1 [3,6-bis(2-piperidinoethoxy)acridine trihydrochloride]
% Reduction in splenomegaly ([1]; 100 mg/kg): 84% | Serum hemagglutinin titer/saline control titer ([2]; 100 mg/kg oral): 256/16 | Survivors/Total (Columbia SK virus [3]): 12/15

CCNCCOc1ccc2cc3ccc(OCCNCC)cc3nc2c1.Cl.Cl.Cl [3,6-Bis(2-ethylaminoethoxy)acridine trihydrochloride]
% Reduction in splenomegaly ([1]; 100 mg/kg): 89% | Survivors/Total (Columbia SK virus [3]): 10/15

Sc1ncnc2nc[nH]c12 [6-Mercaptopurine, 6-mercaptopurine, reference compound]
% Reduction in splenomegaly ([1]; 100 mg/kg): 113% | reduction in splenomegaly [1]: ≥ 50%

c1cc2cc3ccc(OCCCN4CCCCC4)cc3nc2cc1OCCCN1CCCCC1 [3,6-bis[3-(1-piperidino)propoxy]acridine trihydrochloride]
% Reduction in splenomegaly ([1]; 50 mg/kg): 74% | Serum hemagglutinin titer/saline control titer ([2]; 50 mg/kg oral): 1024/32 | Survivors/Total (Columbia SK virus [3]): 12/15

CC(C)NCCOc1ccc2cc3ccc(OCCNC(C)C)cc3nc2c1.Cl.Cl.Cl [3,6-bis(2-isopropylaminoethoxy)acridine trihydrochloride]
% Reduction in splenomegaly ([1]; 200 mg/kg): 96% | Serum hemagglutinin titer/saline control titer ([2]; 100 mg/kg oral): 512/32 | Survivors/Total (Columbia SK virus [3]): 15/15

CN(C)CCOc1ccc2cc3ccc(OCCN(C)C)cc3nc2c1.Cl.Cl.Cl [3,6-bis(2-dimethylaminoethoxy)acridine trihydrochloride]
No. of mice with 0 lung foci/mouse (B16 melanoma; 6.5 mg/kg i.p.): 0 | No. of mice with 1-5 lung foci/mouse (B16 melanoma; 6.5 mg/kg i.p.): 3 | No. of mice with 6-10 lung foci/mouse (B16 melanoma; 6.5 mg/kg i.p.): 3 | No. of mice with 11-15 lung foci/mouse (B16 melanoma; 6.5 mg/kg i.p.): 1 | No. of mice with >15 lung foci/mouse (B16 melanoma; 6.5 mg/kg i.p.): 1 | No. of mice with 0 lung foci/mouse (B16 melanoma; 12.5 mg/kg i.p.): 1 | No. of mice with 1-5 lung foci/mouse (B16 melanoma; 12.5 mg/kg i.p.): 5 | No. of mice with 6-10 lung foci/mouse (B16 melanoma; 12.5 mg/kg i.p.): 1 | No. of mice with 11-15 lung foci/mouse (B16 melanoma; 12.5 mg/kg i.p.): 1 | No. of mice with >15 lung foci/mouse (B16 melanoma; 12.5 mg/kg i.p.): 1 | No. of mice with 0 lung foci/mouse (B16 melanoma; 25 mg/kg i.p.): 2 | No. of mice with 1-5 lung foci/mouse (B16 melanoma; 25 mg/kg i.p.): 4 | No. of mice with 6-10 lung foci/mouse (B16 melanoma; 25 mg/kg i.p.): 2 | No. of mice with 11-15 lung foci/mouse (B16 melanoma; 25 mg/kg i.p.): 1 | No. of mice with >15 lung foci/mouse (B16 melanoma; 25 mg/kg i.p.): 0 | No. of mice with 0 lung foci/mouse (B16 melanoma; 50 mg/kg i.p.): 1 | No. of mice with 1-5 lung foci/mouse (B16 melanoma; 50 mg/kg i.p.): 1 | No. of mice with 6-10 lung foci/mouse (B16 melanoma; 50 mg/kg i.p.): 4 | No. of mice with 11-15 lung foci/mouse (B16 melanoma; 50 mg/kg i.p.): 0 | No. of mice with >15 lung foci/mouse (B16 melanoma; 50 mg/kg i.p.): 0 | No. of mice with 0 lung foci/mouse (B16 melanoma; 100 mg/kg i.p.): 3 | No. of mice with 1-5 lung foci/mouse (B16 melanoma; 100 mg/kg i.p.): 7 | No. of mice with 6-10 lung foci/mouse (B16 melanoma; 100 mg/kg i.p.): 0 | No. of mice with 11-15 lung foci/mouse (B16 melanoma; 100 mg/kg i.p.): 0 | No. of mice with >15 lung foci/mouse (B16 melanoma; 100 mg/kg i.p.): 0 | Mortality (in place of lung foci count) (B16 melanoma; 200 mg/kg i.p. days 1,5,9,13): All mice dead
